{"source": "paper PMC6570762", "about": "“Identification of a binding protein for sesamin and characterization of its roles in plant growth” (Scientific Reports, 2019)", "target": "T1, Steroleosin B (GST-fused Steroleosin B) (Sesamum indicum, UniProt Q8LKV5)", "T1 construct": "gene SOP3", "T1 sequence (Q8LKV5 1-362)": "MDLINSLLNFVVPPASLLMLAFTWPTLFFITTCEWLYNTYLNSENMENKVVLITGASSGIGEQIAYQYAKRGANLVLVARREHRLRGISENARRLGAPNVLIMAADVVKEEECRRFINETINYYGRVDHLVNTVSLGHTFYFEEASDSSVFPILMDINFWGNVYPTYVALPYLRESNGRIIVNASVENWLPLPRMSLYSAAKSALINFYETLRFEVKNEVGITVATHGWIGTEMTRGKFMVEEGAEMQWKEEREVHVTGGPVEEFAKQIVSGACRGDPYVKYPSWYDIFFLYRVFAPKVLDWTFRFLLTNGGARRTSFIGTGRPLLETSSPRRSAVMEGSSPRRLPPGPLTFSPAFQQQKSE", "assay": "STD-NMR ([…] MHz)", "format": "binding", "conditions": "60 μM sesamin, 0.5 μM GST-Steroleosin B, stated ligand:protein ratio 60:1; PBS in D2O, 5% DMSO-d6, 298 K; GST alone as control", "data": [{"smiles": "c1cc2c(cc1[C@H]1OC[C@H]3[C@@H]1CO[C@@H]3c1ccc3c(c1)OCO3)OCO2", "note": "[sesamin]", "values": [{"measurement": "STD-NMR (800 MHz)", "result": "these results demonstrate the direct interaction between sesamin and Steroleosin B"}]}]}
